Measured values published in patent publication US20260250290A1 (BRISTOL-MYERS SQUIBB COMPANY, priority 2023, published 2026).
Counter-ions that a name gives are not always drawn.

Target: T1, full length SGK1 (Homo sapiens, UniProt O00141)
T1 construct: 125 μM full length SGK1 (Life Technologies Part #PR7358A); purchased Life Technologies PR7358A
T1 sequence (O00141 1-431): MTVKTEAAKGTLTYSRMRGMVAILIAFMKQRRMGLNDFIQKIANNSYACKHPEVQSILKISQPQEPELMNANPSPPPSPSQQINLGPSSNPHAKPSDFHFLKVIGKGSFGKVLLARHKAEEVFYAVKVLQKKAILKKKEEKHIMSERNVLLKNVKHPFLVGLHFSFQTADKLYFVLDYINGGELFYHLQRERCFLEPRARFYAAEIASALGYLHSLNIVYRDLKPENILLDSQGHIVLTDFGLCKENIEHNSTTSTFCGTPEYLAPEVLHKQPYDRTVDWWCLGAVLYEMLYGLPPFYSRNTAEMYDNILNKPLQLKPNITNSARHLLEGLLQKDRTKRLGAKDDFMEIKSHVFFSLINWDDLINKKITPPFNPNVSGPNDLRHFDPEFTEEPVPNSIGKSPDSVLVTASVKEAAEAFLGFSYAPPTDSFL
Test: SGK1 inhibition Assay A (Caliper LabChip electrophoretic separation of fluorescent peptide substrate and phosphorylated product)
Assay type: biochemical
Settings: Assay A; 20 μM ATP, 40 min incubation; read-out: SGK1 IC50

IC50 | Compound
107 nM | Cc1ccc(C(=O)N[C@@H]2CCCN(c3c(Cl)c(-c4ccc(S(C)(=O)=O)cc4)n4ncnc(N)c34)C2)s1 [Example 195, N-[(3R)-1-[4-amino-6-chloro-7-(4-methanesulfonylphenyl)pyrrolo[2,1-f][1,2,4]triazin-5-yl]piperidin-3-yl]-5-methylthiophene-2-carboxamide]
32 nM | Cc1cc(-c2cc(N3CCC[C@@H](NC(=O)c4sc(C(F)F)cc4OCCN(C)C)C3)c3c(N)ncnn23)cc(C(F)F)n1 [Example 312, (R)-N-(1-(4-amino-7-(2-(difluoromethyl)-6-methylpyridin-4-yl)pyrrolo[2,1-f] [1,2,4]triazin-5-yl)piperidin-3-yl)-5-(difluoromethyl)-3-(2-(dimethylamino)ethoxy)thiophene-2-carboxamide]
111 nM | CN(C)CCOc1cc(C2CC2)sc1C(=O)N[C@@H]1CCCN(c2cc(-c3cncnc3)n3ncnc(N)c23)C1 [Example 374, (R)-N-(1-(4-amino-7-(pyrimidin-5-yl)pyrrolo[2,1-f][1,2,4]triazin-5-yl)piperidin-3-yl)-5-cyclopropyl-3-(2-(dimethylamino)ethoxy) thiophene-2-carboxamide]
26 nM | CC(=O)N1CC=C(c2cc(N3CCC[C@@H](NC(=O)c4ccncc4)C3)c3c(N)ncnn23)C1 [Example 730, (R)-N-(1-(7-(1-acetyl-2,5-dihydro-1H-pyrrol-3-yl)-4-aminopyrrolo[2,1-f][1,2,4]triazin-5-yl)piperidin-3-yl)isonicotinamide]
18 nM | CC(=O)N1CC=C(c2cc(N3CCC[C@@H](NC(=O)c4ccc(CO)cc4)C3)c3c(N)ncnn23)C1 [Example 457, (R)-N-(1-(7-(1-acetyl-2,5-dihydro-1H-pyrrol-3-yl)-4-aminopyrrolo[2,1-f][1,2,4]triazin-5-yl)piperidin-3-yl)-4-(hydroxymethyl)benzamide]
24 nM | Nc1ncnn2c(-c3cncnc3)cc(N3CCC[C@@H](NC(=O)c4sc(Cl)cc4OC4CCN(C5CC5)CC4)C3)c12 [Example 617, (R)-N-(1-(4-amino-7-(pyrimidin-5-y1)pyrrolo[2,1-f][1,2,4]triazin-5-yl)piperidin-3-y1)-5-chloro-3-((1-cyclopropylpiperidin-4-yl)oxy)thiophene-2-carboxamide]
43 nM | CC(=O)N1CC=C(c2cc(N3CCC[C@@H](NC(=O)c4sc(C5CC5)cc4OC4CCN(C5CC5)CC4)C3)c3c(N)ncnn23)C1 [Example 378, (R)-N-(1-(7-(1-acetyl-2,5-dihydro-1H-pyrrol-3-yl)-4-aminopyrrolo[2,1-f][1,2,4]triazin-5-yl)piperidin-3-yl)-5-cyclopropyl-3-((1-cyclopropylpiperidin-4-yl)oxy)thiophene-2-carboxamide]
45 nM | COc1cncc(C(=O)N[C@@H]2CCCN(c3cc(-c4ccc(S(C)(=O)=O)cc4)n4ncnc(N)c34)C2)c1 [Example 102, (R)-N-(1-(4-amino-7-(4-(methylsulfonyl)phenyl)pyrrolo[2,1-f][1,2,4]triazin-5-yl)piperidin-3-yl)-5-methoxynicotinamide, TFA]
784 nM | CC(=O)N1CC=C(c2cc(N3CCC[C@@H](NC(=O)c4ccc5n(c4=O)CCC5)C3)c3c(N)ncnn23)C1 [Example 746, (R)-N-(1-(7-(1-acetyl-2,5-dihydro-1H-pyrrol-3-yl)-4-aminopyrrolo[2,1-f][1,2,4]triazin-5-yl)piperidin-3-yl)-5-oxo-1,2,3,5-tetrahydroindolizine-6-carboxamide]
6 nM | CC(=O)N1CC=C(c2cc(N3CCC[C@@H](NC(=O)c4sc(Cl)cc4OC4CN(C(C)C)C4)C3)c3c(N)ncnn23)C1 [Example 577, (R)-N-(1-(7-(1-acetyl-2,5-dihydro-1H-pyrrol-3-yl)-4-aminopyrrolo[2,1-f][1,2,4]triazin-5-yl)piperidin-3-yl)-5-chloro-3-((1-isopropylazetidin-3-yl)oxy)thiophene-2-carboxamide]
3 nM | Nc1ncnn2c(-c3ccc(C(F)F)nc3)cc(N3CCC[C@@H](NC(=O)c4ccc(Cl)s4)C3)c12 [Example 248, (R)-N-(1-(4-amino-7-(6-(difluoromethyl)pyridin-3-yl)pyrrolo[2,1-f][1,2,4]triazin-5-yl)piperidin-3-yl)-5-chlorothiophene-2-carboxamide, TFA]
29 nM | CC(=O)N1CC=C(c2cc(N3CCC[C@@H](NC(=O)c4sc(C)nc4OC4CCN(C(C)C)CC4)C3)c3c(N)ncnn23)C1 [Example 358, (R)-N-(1-(7-(1-acetyl-2,5-dihydro-1H-pyrrol-3-yl)-4-aminopyrrolo[2,1-f][1,2,4]triazin-5-yl)piperidin-3-yl)-4-((1-isopropylpiperidin-4-yl)oxy)-2-methylthiazole-5-carboxamide]
8 nM | Nc1ncnn2c(C3=CCN(C(=O)[C@@H]4CCCO4)C3)cc(N3CCC[C@@H](NC(=O)c4ccc(Cl)s4)C3)c12 [Example 903, N-((R)-1-(4-amino-7-(1-((S)-tetrahydrofuran-2-carbony1)-2,5-dihydro-1H-pyrrol-3-yl)pyrrolo[2,1-f][1,2,4]triazin-5-yl)piperidin-3-y1)-5-chlorothiophene-2-carboxamide]
11 nM | CC(=O)N1CC=C(c2cc(N3CCC[C@@H](NC(=O)c4cccc(OCCN5CCN(C)CC5)n4)C3)c3c(N)ncnn23)C1 [Example 701, (R)-N-(1-(7-(1-acetyl-2,5-dihydro-1H-pyrrol-3-yl)-4-aminopyrrolo[2,1-f][1,2,4]triazin-5-yl)piperidin-3-yl)-6-(2-(4-methylpiperazin-1-yl)ethoxy)picolinamide]
33 nM | CS(=O)(=O)c1ccc(-c2cc(N3CCCC(NC(=O)c4ccccc4)C3)c3c(N)ncnn23)cc1 (stereo not shown) [Example 4, N-(1-(4-amino-7-(4-(methylsulfonyl)phenyl)pyrrolo[2,1-f][1,2,4]triazin-5-yl)piperidin-3-yl)benzamide]
3 nM | COC(=O)N1CC=C(c2cc(N3CCC[C@@H](NC(=O)c4sc(C5CC5)cc4OC4CCNCC4)C3)c3c(N)ncnn23)C1 [Example 379, Methyl (R)-3-(4-amino-5-(3-(5-cyclopropyl-3-(piperidin-4-yloxy)thiophene-2-carboxamido)piperidin-1-yl)pyrrolo[2,1-f][1,2,4]triazin-7-yl)-2,5-dihydro-1H-pyrrole-1-carboxylate]
7 nM | N#Cc1ccc(-c2cc(N3CCC[C@@H](NC(=O)c4sc(C(F)F)cc4OC4COC4)C3)c3c(N)ncnn23)cn1 [Example 435, (R)-N-(1-(4-amino-7-(6-cyanopyridin-3-yl)pyrrolo[2,1-f][1,2,4]triazin-5-yl)piperidin-3-yl)-5-(difluoromethyl)-3-(oxetan-3-yloxy)thiophene-2-carboxamide]
484 nM | CC(=O)N1CC=C(c2cc(N3CCC[C@@H](NC(=O)c4cn5ccc(C#N)cc5n4)C3)c3c(N)ncnn23)C1 [Example 679, (R)—N-(1-(7-(1-acetyl-2,5-dihydro-1H-pyrrol-3-yl)-4-aminopyrrolo[2,1-f][1,2,4]triazin-5-yl)piperidin-3-yl)-7-cyanoimidazo[1,2-a]pyridine-2-carboxamide]
392 nM | CC(=O)N1CC=C(c2cc(N3CCC[C@@H](NC(=O)C4=NN(c5ccccc5)C(=O)C4)C3)c3c(N)ncnn23)C1 [Example 459, (R)-N-(1-(7-(1-acetyl-2,5-dihydro-1H-pyrrol-3-yl)-4-aminopyrrolo[2,1-f][1,2,4]triazin-5-yl)piperidin-3-yl)-5-oxo-1-phenyl-4,5-dihydro-1H-pyrazole-3-carboxamide]
10 nM | CS(=O)(=O)c1ccc(-c2cc(N3CC[C@@H](F)[C@@H](NC(=O)c4ccc(Cl)s4)C3)c3c(N)ncnn23)cc1 (relative stereo) [Example 143, rel-N-((3R,4S)-1-(4-amino-7-(4-(methylsulfonyl)phenyl)pyrrolo[2,1-f][1,2,4]triazin-5-yl)-4-fluoropiperidin-3-yl)-5-chlorothiophene-2-carboxamide, TFA]
3 nM | COC(=O)N1CC=C(c2cc(N3CCC[C@@H](NC(=O)c4sc(Cl)cc4OC4CCN(C(C)=O)CC4)C3)c3c(N)ncnn23)C1 [Example 565, methyl (R)-3-(5-(3-(3-((1-acetylpiperidin-4-yl)oxy)-5-chlorothiophene-2-carboxamido)piperidin-1-yl)-4-aminopyrrolo[2,1-f][1,2,4]triazin-7-yl)-2,5-dihydro-1H-pyrrole-1-carboxylate]
21 nM | COC(=O)N1CC=C(c2cc(N3CCC[C@@H](NC(=O)c4sc5ccncc5c4OCCN(C)C)C3)c3c(N)ncnn23)C1 [Example 668, methyl (R)-3-(4-amino-5-(3-(3-(2-(dimethylamino)ethoxy)thieno [3,2-c]pyridine-2-carboxamido)piperidin-1-yl)pyrrolo[2,1-f] [1,2,4]triazin-7-yl)-2,5-dihydro-1H-pyrrole-1-carboxylate]
25 nM | CC(=O)N1CC=C(c2cc(N3CCC[C@@H](NC(=O)c4cccc(OCCN5CCOCC5)n4)C3)c3c(N)ncnn23)C1 [Example 700, (R)—N-(1-(7-(1-acetyl-2,5-dihydro-1H-pyrrol-3-yl)-4-aminopyrrolo[2,1-f][1,2,4]triazin-5-yl)piperidin-3-yl)-6-(2-morpholinoethoxy)picolinamide]
3 nM | CC(=O)N1CC=C(c2cc(N3CCC[C@@H](NC(=O)c4sc(Cl)cc4OC4CC5CC4CN5)C3)c3c(N)ncnn23)C1 (single isomer, unassigned) [Example 607]

Compound | IC50
(R)-N-(1-(4-amino-7-(1-(2,2-difluoroethyl)-6-oxo-1,6-dihydropyridin-3-yl)pyrrolo[2,1-f][1,2,4]triazin-5-yl)piperidin-3-yl)-5-chlorothiophene-2-carboxamide [Example 520] | 3 nM
